In US9765039B2, “Biaryl derivatives as bromodomain inhibitors” (Zenith Epigenetics Ltd., priority 2012, dated 2017):

Key:
c-myc = assay: Inhibition of c-myc expression in cancer cell lines (mRNA, real-time PCR); assay type: cell-based; parameters: key: Active: Compounds with an IC50 value less than 30 μM were deemed to be active; details: Human AML MV4-11 cells, 3 hours
Summary of the method: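 MV4-11 cells (2.5×10^4) exposed to compound or 0.1% DMSO for 3 h at 37° C, then lysed for mRNA isolation. c-myc and cyclophilin cDNAs co-amplified by duplex RT real-time PCR. IC50 from dose-response curve.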

hIL-6 mRNA = assay: Inhibition of hIL-6 mRNA transcription in LPS-stimulated U937 macrophages; assay type: cell-based, human; parameters: key: Active: Compounds with an IC50 value less than 30 μM are deemed to be active; details: U937 differentiated into macrophages, 1 h pretreatment, lipopolysaccharide 3 h
Summary of the method: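 U937 cells differentiated 3 days with 60 ng/mL PMA, pretreated 1 h with compound, then stimulated with […] E. coli LPS for 3 h at 37° C. hIL-6 mRNA quantified by one-step real-time RT-PCR, Ct normalised to internal control and expressed as fold induction relative to control.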

Brd4 bromodomain 1 = target: T1, Brd4 bromodomain 1 (Homo sapiens, UniProt O60885); assay: Inhibition of tetra-acetylated histone H4 binding to BET bromodomains (TR-FRET); parameters: key: Active: Compounds with an IC50 value less than 30 μM were deemed to be active.; Not Active: Compounds with an IC50 value less than 30 μM were deemed to be active; details: first bromodomain of Brd4, tetra-acetylated histone H4 peptide
T1 construct: made in house; host or cells: E. coli BL21(DE3)
Summary of the method: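 TR-FRET with N-terminally His-tagged bromodomains (200 nM, E. coli-expressed, Ni affinity and SEC-purified) and biotinylated tetra-acetylated histone H4 peptide (25–50 nM), detected with Eu-cryptate streptavidin and XL665 anti-His antibody. Buffer 30 mM HEPES pH 7.4, 320 mM KF, 0.08% BSA, 0.2% DMSO; 2 h RT. IC50 from decrease in 665/620 nm ratio.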

arthritic rats = assay: In vivo efficacy in rat collagen induced arthritis; parameters: species or system female Lewis strain of rats; details: collagen Day 1 and 7, dosed Day 11 to Day 17
Procedure: Rat collagen-induced arthritis is an experimental model of polyarthritis that has been widely used for preclinical testing of numerous anti-arthritic agents. Following administration of collagen, this model establishes a measurable polyarticular inflammation, marked cartilage destruction in association with pannus formation and mild to moderate bone resorption and periosteal bone proliferation. In this model, collagen was administered to female Lewis strain of rats on Day 1 and 7 of study and dosed with compounds from Day 11 to Day 17. Compounds were evaluated to assess the potential to inhibit the inflammation (including paw swelling), cartilage destruction and bone resorption in arthritic rats, using a model in which the treatment is administered after the disease has been established.

hApoA-1 mRNA = assay: Up-regulation of hApoA-1 mRNA transcription in Huh7 cells; assay type: cell-based, human; parameters: key: Active: Compounds with an EC170 value less than 30 μM are deemed to be active.; Not Active: Compounds with an EC170 value less than 30 μM are deemed to be active; details: 48 hrs treatment, ApoA-I mRNA
Summary of the method: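 Huh7 cells plated 24 h before compound, then treated 48 h; mRNA isolated from lysates and ApoA-I quantified by one-step real-time PCR. Fold induction derived from Ct values relative to the matching DMSO control; EC170 reported as activity measure.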

Human AML MV-4-11 cells = assay: Inhibition of cell proliferation in cancer cell lines (CellTiter Aqueous One); assay type: cell-based; parameters: key: Active: Compounds with an IC50 value less than 30 μM were deemed to be active.; Not Active: Compounds with an IC50 value less than 30 μM were deemed to be active; details: 72 hours
Summary of the method: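 Exponentially growing MV-4-11 cells were treated immediately with two-fold compound dilutions from 30 µM to 0.2 µM in triplicate for 72 h at 37 °C. Viability was read by MTS (CellTiter Aqueous One) absorbance at 490 nm after 3-4 h; % proliferation vs DMSO gave IC50.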

IL-6 = assay: In vivo efficacy in mouse endotoxemia model (IL-6); details: C57/B16 mice; orally at 75 mg/kg; 4 hour challenge with LPS 0.5 mg/kg intraperitoneally
Procedure: Sub lethal doses of Endotoxin (E. coli bacterial lipopolysaccharide) were administered to animals to produce a generalized inflammatory response which was monitored by increases in secreted cytokines. Compounds were administered to C57/B16 mice orally at 75 mg/kg dose to evaluate inhibition in IL-6 and IL-17 cytokines post 4 hour challenge with Lipopolysaccharide (LPS) at 0.5 mg/kg dose intraperitoneally.

c-myc activity (IC50 < 30 μM) (c-myc)	IL-6 activity (IC50 < 30 μM) (hIL-6 mRNA)	FRET activity (IC50 < 30 μM) (Brd4 bromodomain 1)	melting point [°C]	cell proliferation activity (IC50 < 30 μM) (Human AML MV-4-11 cells)	SMILES	In vivo Activity (arthritic rats)	ApoA-1 Activity (EC170 < 30 μM) (hApoA-1 mRNA)	In vivo Activity (IL-6) (IL-6)
Active	Active	Active	266 to 267	Active	COc1cc(OC)c2c(=O)[nH]c(-c3ccc(OC)c(-c4ccc([S+](C)[O-])cc4)n3)nc2c1 (stereo not shown) [Example 50, 5,7-Dimethoxy-2-(5-methoxy-6-(4-(methylsulfinyl)phenyl)pyridin-2-yl)quinazolin-4(3H)-one]	Active	Active	–
Active	Active	Active	–	Active	COc1cc(OC)c2c(=O)[nH]c(-c3ccc(OCCNC(C)C)c(-c4ccc(S(C)(=O)=O)cc4)n3)nc2c1 [Example 27, 2-(5-(2-(Isopropylamino)ethoxy)-6-(4-(methylsulfonyl)phenyl)pyridin-2-yl)-5,7-dimethoxyquinazolin-4(3H)-one]	–	Active	Active
